The results in this text go back to patent US10154970B2, “Methods for immunomodulation of cancer and infectious disease therapy” (The Regents of the University of California, priority 2014, dated 2018).

For one experiment, the system named is IL-2. Put plainly: IL-2 mRNA expression in Jurkat cells by qRT-PCR, normalized with GAPDH. Format: cell-based, human. As to the method:
FIG. 1. Interferon gamma (IFN-γ) and interleukin (IL)-2 expression in human Jurkat cells following exposure to TRIP in vitro. Jurkat cells (2×10^6) were treated with different concentrations of TRIP as indicated for 24 hours. (A) IFN-γ and (B) IL-2 mRNA expression levels were detected by quantitative real-time polymerase chain reaction (qRT-PCR) and normalized with the expression of GAPDH. *p<0.05, **p<0.01, ***p<0.001.
FIG. 3. Effects of TRIP alone and in combination with trifluoperazine (TFP) or LY294002 (LY) on IFN-γ and IL-2 in human Jurkat cells in vitro. Jurkat cells (2×10^6) were pretreated with different concentrations of (A, B) TFP (0, 0.1, 1.0, 5.0, and 10.0 μM) and (C, D) LY294002 (0, 1, 5, 10, and 25 μM) for 1 hour, then incubated with medium containing 2.5 μM of TRIP for 24 hours. (A, C) IFN-γ and (B, D) IL-2 mRNA expression levels were detected by qRT-PCR and normalized with the expression of GAPDH. *p<0.05, **p<0.01, ***p<0.001.
FIG. 4. Effects of calmodulin, PI3K and MAPK inhibition on TRIP-induced expression of IFN-γ and IL-2 in human Jurkat cells in vitro. Jurkat cells (2×10^6) were pretreated with PD98059 (50 μM), TFP (10 μM) and LY294002 (25 μM) for 1 hour, then incubated with medium containing 2.5 μM of TRIP for 24 hours. (A) IFN-γ and (B) IL-2 mRNA expression levels were detected by qRT-PCR and normalized with the expression of GAPDH. **p<0.01, ***p<0.001, ****p<0.0001.
The potential immune regulating effects of TRIP and the possible mechanism(s) involved were determined with in vitro experiments examining the expression of T cell activating cytokines in human acute T cell leukemia Jurkat cells. The expression of IFN-γ and IL-2 RNA following exposure to increasing concentrations of TRIP (i.e., ospemifene) were first examined, followed by the effects of combining tamoxifen with TRIP on the expression of these cytokines. Different inhibitors of key T cell activation pathways—trifluoperazine (TFP), an inhibitor of calmodulin, LY294002, an inhibitor of PI3K, and PD98059, a MAPK inhibitor—in combination with TRIP were assessed for their effects on TRIP-induced expression of IFN-γ and IL-2 in Jurkat cells.
Jurkat cells (2.0×10^6) were treated with different concentrations of TRIP as indicated on the x-axis for 24 hours. (A) IFN-γ and (B) IL-2 mRNA expression levels were detected by quantitative real-time polymerase chain reaction (qRT-PCR) and normalized with the expression of GAPDH. *p<0.05, **p<0.01, ***p<0.001.
T cell activation requires multiple signals including PI3K, MAPK and calcium signaling pathways, and in order to identify the potential mechanism through which TRIP affects immune activation, Jurkat cells (2.0×10^6) were pretreated with different concentrations of TFP (0, 0.1, 1.0, 5.0 and 10.0 μM) (A, B) or LY294002 (0, 1, 5, 10 and 25 μM) (C, D) for one hour, then incubated with medium containing 2.5 μM TRIP for 24 hours. IFN-γ and IL-2 expression levels were detected by qRT-PCR and normalized with the expression of GAPDH. *p<0.05, **p<0.01, ***p<0.001.
Jurkat cells (2×10^6) were pretreated with PD98059 (50 μM), TFP (10 μM) or LY294002 (25 μM) for one hour, then incubated with medium containing 2.5 μM TRIP for 24 hours. (A) IFN-γ and (B) IL-2 mRNA expression levels were detected by qRT-PCR and normalized with expression of GAPDH. **p<0.01, ***p<0.001, ****p<0.0001.
The effects on T cell activation of different functional group substitutions on the TRIP chemical structure (Formula Ia) were examined by measuring the expression of IFN-γ and IL-2 RNA in human acute T cell leukemia Jurkat cells in vitro.
A strong increase is defined as a ≥50% increase compared to the control. A moderate increase is defined as a 25-49% increase compared to the control. A weak increase is defined as a 0-24% increase compared to the control. No effect is when there was no increase compared to the control.
For orientation: Real-time PCR tracks product formation cycle by cycle.

Another experiment deals with IL-4. As to the method:
A total of 43 wild type C57BL/6 mice were assigned to four different treatment groups: Control (n=10); and TRIP (i.e., ospemifene) 10, 50, and 100 mg/kg (n=11, all TRIP groups). All mice received a full course of tecemotide (L-BLP25) peptide vaccine (PV) immunotherapy (eight weekly 10 μg doses administered subcutaneously (s.c.) as described in Wurz G T. et al., J. Transl. Med., 11:64 (2013)). During the final 16 days of immunotherapy, mice received daily oral doses of TRIP according to treatment group assignment. TRIP oral dosing solutions were prepared by dissolving an appropriate amount of the drug in pure dimethyl sulfoxide (DMSO) and then adding peanut oil to the desired final concentration (final DMSO concentration was 2%). All doses were administered in a volume of 100 μl using 20-gauge stainless steel oral feeding needles. Control mice were given diluent only. Forty-eight hours following the final dose of PV, all mice were euthanized for the collection of blood for cytokine analysis by multiplex and spleens for assessing immune response by enzyme-linked immunosorbent spot (ELISpot) assay.
Data are expressed as the number of spot forming cells (SFC)/500,000 lymphocytes following exposure to medium (no peptide), scrambled peptide, and BP25 peptide.

The next experiment relates to IFN-γ. Description: Example 6: IFN-γ ELISpot response to BP25 peptide in allograft-bearing mice. The class given is in vivo, C57BL/6 wild type mice. The note with it: Day 28, TRIP 100 mg/kg + PV 100 μg.
In experiment [1] the test system is pro-inflammatory cytokines (IL-6, IP-10, MIG, IL-1β, KC).
Procedure: Serum was analyzed by multiplex immunoassay 24 hours following the last dose of TRIP at each time point.
Following induction of lung cancer as described (Wurz G T. et al., J. Transl. Med., 11:64 (2013)), mice were randomized into four treatment groups: Control; and TRIP (i.e., ospemifene) 5, 25, and 50 mg/kg (n=12, all groups). TRIP and control solutions were orally administered by gavage according to treatment group. After 30 days of treatment (Week 20), a total of 16 mice, four from each treatment group, were euthanized, and whole blood was collected by cardiac puncture. The remaining mice continued daily TRIP treatments. An additional 16 mice, four from each treatment group, were euthanized following 60 (Week 24) and 90 (Week 28) days of treatment, and whole blood and livers were collected. Serum samples were subjected to multiplex cytokine analysis for TH1 (IL-2, IL-12, IFN-γ, TNF-α), TH2 (IL-4, IL-5, IL-10, IL-13) and inflammatory cytokines (MIP-1α, IP-10, MIG, IL-1β, IL-6, KC).
Terminal serum pro-inflammatory cytokines (IL-6, IP-10, MIG, IL-1β, KC) were analyzed 24 hours after the last dose at each time point (FIG. 7).
Experiment [2] relates to mouse breast cancer cells expressing the PV target antigen (BP25). Put plainly: Example 6: tumor volume of breast cancer allografts. As to conditions: three daily oral doses TRIP 100 mg/kg before each of four weekly 100 μg PV; Days 22 and 25. Format: in vivo, C57BL/6 wild type mice.
Procedure: Antitumor effects and serum IFN-γ immune response to peptide vaccine immunotherapy alone and in combination with TRIP immunomodulator. Each of four weekly 100-μg injections of peptide vaccine (PV) was preceded by three daily oral doses of TRIP (100 mg/kg). All mice were implanted with breast cancer allografts on Day 0, and serum was collected on Day 28 following four weeks of treatment. Tumor volumes were measured twice each week. For all treatment groups, n=8.
A total of 32 female C57BL/6 wild type mice were assigned to four treatment groups (n=8): Control; TRIP (i.e., ospemifene) 100 mg/kg; tecemotide (L-BLP25) peptide vaccine (PV) (100 μg); and TRIP 100 mg/kg combined with 100 μg PV. On Day 0 of the study, all 32 mice were subcutaneously implanted with 1.0×10^6 mouse breast cancer cells expressing the PV target antigen (BP25). Two days later, mice began a three-day regimen of once daily 100 mg/kg TRIP administered orally. On Day 5, mice were administered their first weekly 100 μg dose of PV by subcutaneous injection. This treatment schedule was repeated for a total of four weeks. Tumor growth was assessed twice weekly. All mice were euthanized on Day 28 for the collection of serum and spleens to assess immune response to treatment. Immune response was assessed by performing IFN-γ ELISpot.

Procedure for IFN-γ: IFN-γ immune response to scrambled and BP25 peptides following treatment with control (n=5), TRIP 100 mg/kg (n=6), PV 100 μg (n=6) and the TRIP+PV (n=6) combination. Each of four weekly 100 μg injections of peptide vaccine (PV) was preceded by three daily oral doses of TRIP. All mice were implanted with breast cancer allografts on Day 0, and spleens were collected for enzyme-linked immunosorbent spot (ELISpot) analysis on Day 28 following four weeks of treatment. The BP25 peptide is a 25-mer and the target antigen of the PV, while the scrambled peptide is a control peptide containing the same 25 amino acids in a scrambled arrangement.
On Day 0 of the study, all 32 mice were subcutaneously implanted with 1.0×10^6 mouse breast cancer cells expressing the PV target antigen (BP25). Two days later, mice began a three-day regimen of once daily 100 mg/kg TRIP administered orally. On Day 5, mice were administered their first weekly 100 μg dose of PV by subcutaneous injection. This treatment schedule was repeated for a total of four weeks. Tumor growth was assessed twice weekly. All mice were euthanized on Day 28 for the collection of serum and spleens to assess immune response to treatment. Immune response was assessed by performing IFN-γ ELISpot.

With `OCCOc1ccc(/C(=C(/CCCl)c2ccccc2)c2ccccc2)cc1` [TRIP, Z-2-[4-(4-chloro-1,2-diphenyl-but-1-enyl)-phenoxy]ethanol], the “IL-2 RNA expression compared to control” value in the experiment with IL-2 (Jurkat cells, different concentrations of TRIP, 24 hours, dose-dependent (FIG. 1B)) is recorded as “significantly induced”. Further, in the experiment with IL-2 (mRNA in Jurkat cells in vitro, relative to control sample without TRIP compound), the “IL-2 Expression” value is “+++ (strong increase)”. Besides, the “IL-4 response, PV + 50 mg/kg TRIP vs PV alone” value with IL-4 (TRIP 50 mg/kg daily oral final 16 days + PV) is recorded as “No significant difference”. Moreover, the “IL-4 immune response by ELISpot, TRIP combined with PV” value in the experiment on IL-4 (TRIP 10, 50, 100 mg/kg daily oral final 16 days + 8 weekly 10 μg PV s.c.) is on record as “decrease with TRIP dose”. Moreover, in the experiment on IFN-γ, the “T cell immune response by ELISpot to the target antigen (BP25), PV in combination with TRIP” value was “specific IFN-γ responses” and the “T cell immune response by ELISpot, PV in combination with TRIP compared to PV alone” value was “increased immune response”. Also, the “pro-inflammatory serum cytokine levels” value in experiment [1] (TRIP 5, 25, 50 mg/kg daily oral, 30, 60, 90 days, compared to control group) is “decreasing levels”. Moreover, in experiment [1] (at 28 weeks (90 days of treatment)), the “serum IL-6 levels, control vs all doses of TRIP” value is given as “Differences”. Moreover, the “tumor volume compared to the control group, PV in combination with TRIP” value in experiment [2] is “reduced tumor volume”.
